Results from ChEMBL document CHEMBL5352484, “Discovery of a potent and long-acting Xenopus GLP-1-based GLP-1/glucagon/Y2 receptor triple agonist” (Eur J Med Chem, 2023).
Activity calls are given as the source filed them. No cut-off for these calls is given here.

Tests used:
Mus musculus [1] = experiment: Hypoglycemic activity in ICR mouse assessed as decrease in blood glucose level at 30 nmol/kg, ip pretreated for 30 mins followed by glucose addition and measured upto 120 mins by OGTT; assay type: functional, organism-based; settings: time <= 150.0 min
Mus musculus [2] = experiment: Hypoglycemic activity in ICR mouse at 30 nmol/kg, ip pretreated with Jant-4 for 30 mins prior to compound addition for 30 mins followed by glucose addition and measured upto 120 mins by OGTT; assay type: functional, organism-based; settings: time <= 150.0 min
Mus musculus [3] = experiment: Hypoglycemic activity in ICR mouse assessed as decrease in blood glucose level at 30 nmol/kg, ip pretreated for 30 mins followed by glucose addition and measured upto 120 mins in presence of 60 nmol/kg Lys7(C16-gammaGlu)PYY3-36 by OGTT; assay type: functional, organism-based; settings: time <= 150.0 min
Mus musculus [4] = experiment: Anti-obesity activity in C57BL/6J mouse model of high-fat diet induced obesity assessed as decrease in body weight at 30 nmol/kg, sc administered twice daily for 7 days in presence of 60 nmol/kg Lys7(C16-gammaGlu)PYY3-36; assay type: functional; set-up: scale not given: the % may be the effect or the level left; settings: time 7 day
Mus musculus [5] = experiment: Reduction in serum ALT level in C57BL/6J mouse at 30 nmol/kg, sc administered for 21 days; assay type: functional, organism-based; settings: time 21.0 day
Mus musculus [6] = experiment: Reduction in serum AST level in C57BL/6J mouse at 30 nmol/kg, sc administered for 21 days; assay type: functional, organism-based; settings: time 21.0 day
Mus musculus [7] = experiment: Antiobesity activity in ICR mouse assessed as reduction in food intake at […], sc measured upto 24 hrs; assay type: functional; set-up: scale not given: the % may be the effect or the level left
Mus musculus [8] = experiment: Anti-obesity activity in C57BL/6J mouse model of high-fat diet induced obesity assessed as decrease in food intake at 30 nmol/kg, sc administered twice daily for 7 days in presence of 60 nmol/kg Lys7(C16-gammaGlu)PYY3-36; assay type: functional, organism-based; settings: time 7.0 day
Mus musculus [9] = experiment: Antiobesity activity in C57BL/6J mouse assessed as reduction in body weight at 10 nmol/kg, sc after 21 days; assay type: functional; set-up: scale not given: the % may be the effect or the level left; settings: time 21 day
Mus musculus [10] = experiment: Reduction in liver TG level in C57BL/6J mouse at 30 nmol/kg, sc administered for 21 days; assay type: functional, organism-based; settings: time 21.0 day
Mus musculus [11] = experiment: Antiobesity activity in ICR mouse assessed as reduction in food intake at […], sc measured upto 24 hrs in presence of Lys7(C16-gammaGlu)PYY3-36; assay type: functional; set-up: scale not given: the % may be the effect or the level left
Mus musculus [12] = experiment: Reduction in liver TC level in C57BL/6J mouse at 30 nmol/kg, sc administered for 21 days; assay type: functional, organism-based; settings: time 21.0 day
Mus musculus [13] = experiment: Hypoglycemic activity in ICR mouse assessed as reduction in glucose excursion at 30 nmol/kg, ip measured upto 120 mins; assay type: functional, organism-based
Mus musculus [14] = experiment: Hypoglycemic activity in ICR mouse at 30 nmol/kg, ip pretreated with JNJ-31020028 for 30 mins prior to compound addition for 30 mins followed by glucose addition and measured upto 120 mins by OGTT; assay type: functional, organism-based; settings: time <= 150.0 min
Mus musculus [15] = experiment: Antiobesity activity in ICR mouse assessed as reduction in body weight at 30 nmol/kg, sc administered twice daily; assay type: functional; set-up: scale not given: the % may be the effect or the level left
Mus musculus [16] = experiment: Anti-obesity activity in C57BL/6J mouse model of high-fat diet induced obesity assessed as decrease in body weight at 30 nmol/kg, sc administered twice daily for 7 days; assay type: functional; set-up: scale not given: the % may be the effect or the level left; settings: time 7 day
Mus musculus [17] = experiment: Reduction in saccharin consumption in ip dosed ICR mouse assessed as reduction in saccharin preference ratio pretreated for 40 mins with saccharin followed by compound addition; assay type: functional, organism-based
Mus musculus [18] = experiment: Anti-diabetic activity in C57BL/6J mouse model of high-fat diet induced obesity assessed as improved in glucose tolerance at 30 nmol/kg, sc administered twice daily for 7 days in presence of 60 nmol/kg Lys7(C16-gammaGlu)PYY3-36; assay type: functional, organism-based; settings: time 7.0 day
Mus musculus [19] = experiment: Anorexigenic effect in ICR mouse assessed as inhibition of food intake at 30 nmol/kg, ip pretreated with Jant-4 for 30 mins followed by compound addition for 30 mins; assay type: functional, organism-based
Glucagon receptor = Glucagon receptor (Homo sapiens, UniProt P47871); experiment: Agonist activity at GCGR (unknown origin) expressed in HEK293 cells assessed as cAMP accumulation incubated for 30 mins by HTRF method; assay type: functional, cell-based
[20] = molecular target: Glucagon-like peptide 1 receptor (Homo sapiens, UniProt P43220); experiment: Agonist activity at GLP-1R (unknown origin) expressed in HEK293 cells assessed as cAMP accumulation incubated for 30 mins by HTRF method; assay type: functional, cell-based
Sequence of Glucagon-like peptide 1 receptor (P43220 whole entry): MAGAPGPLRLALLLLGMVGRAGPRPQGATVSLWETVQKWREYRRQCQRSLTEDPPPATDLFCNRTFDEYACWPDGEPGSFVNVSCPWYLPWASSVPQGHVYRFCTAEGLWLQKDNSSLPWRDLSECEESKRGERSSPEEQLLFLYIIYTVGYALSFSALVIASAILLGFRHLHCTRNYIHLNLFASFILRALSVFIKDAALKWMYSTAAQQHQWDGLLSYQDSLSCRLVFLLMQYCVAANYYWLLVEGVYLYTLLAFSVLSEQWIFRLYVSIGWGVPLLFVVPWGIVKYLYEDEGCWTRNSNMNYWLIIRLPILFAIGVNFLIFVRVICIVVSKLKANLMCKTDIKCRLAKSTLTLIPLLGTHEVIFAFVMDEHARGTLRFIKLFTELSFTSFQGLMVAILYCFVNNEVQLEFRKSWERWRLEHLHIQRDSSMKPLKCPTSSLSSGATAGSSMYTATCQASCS

Sequence of Glucagon receptor (P47871 whole entry): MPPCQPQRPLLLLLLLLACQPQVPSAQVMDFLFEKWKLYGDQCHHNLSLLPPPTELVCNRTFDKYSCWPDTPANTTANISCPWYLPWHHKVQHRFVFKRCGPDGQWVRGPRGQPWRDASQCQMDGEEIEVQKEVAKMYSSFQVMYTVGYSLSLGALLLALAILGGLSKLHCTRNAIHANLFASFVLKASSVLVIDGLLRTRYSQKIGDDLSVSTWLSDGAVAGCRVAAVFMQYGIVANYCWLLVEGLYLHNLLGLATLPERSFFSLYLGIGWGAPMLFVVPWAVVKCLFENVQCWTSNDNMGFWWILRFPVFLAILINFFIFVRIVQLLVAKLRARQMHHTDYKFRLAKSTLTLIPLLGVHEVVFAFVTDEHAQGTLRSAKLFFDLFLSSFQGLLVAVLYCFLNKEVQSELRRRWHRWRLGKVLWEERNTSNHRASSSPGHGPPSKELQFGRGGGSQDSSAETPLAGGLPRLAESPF

With CCCCCCCCCCCCCCCC(=O)N[C@@H](CCC(=O)NCCCC[C@H](NC(=O)[C@H](Cc1ccc(O)cc1)NC(=O)[C@H](CCCCN)NC(=O)[C@H](CO)NC(=O)[C@@H](NC(=O)[C@H](CC(=O)O)NC(=O)[C@H](CC(N)=O)NC(=O)[C@@H](NC(=O)[C@H](Cc1ccc(O)cc1)NC(=O)[C@@H](NC(=O)CNC(=O)[C@H](CCC(N)=O)NC(=O)[C@@H](CO)NC(=O)[C@@H](N)Cc1c[nH]cn1)[C@@H](C)O)[C@@H](C)O)C(C)C)C(=O)N[C@@H](CC(=O)O)C(=O)N[C@@H](CO)C(=O)N[C@@H](CCCNC(=N)N)C(=O)N[C@@H](CCCNC(=N)N)C(=O)N[C@@H](C)C(=O)N[C@@H](CCC(N)=O)C(=O)N[C@@H](CC(=O)O)C(=O)N[C@@H](Cc1ccccc1)C(=O)N[C@H](C(=O)N[C@@H](CCC(=O)O)C(=O)N[C@@H](Cc1c[nH]c2ccccc12)C(=O)N[C@@H](CC(C)C)C(=O)N[C@@H](CCCCN)C(=O)N[C@@H](CC(N)=O)C(=O)NCC(=O)NCC(=O)N1CCC[C@H]1C(=O)N[C@@H](CO)C(=O)N[C@@H](CO)C(=O)NCC(=O)N[C@@H](C)C(=O)N1CCC[C@H]1C(=O)N1CCC[C@H]1C(=O)N1CCC[C@H]1C(=O)N[C@@H](CO)C(N)=O)[C@@H](C)CC)C(=O)O the Activity (Mus musculus [1]) was “Active”, the Activity (Mus musculus [2]) was “inactive” and the Activity (Mus musculus [3]) was “Active”. The Activity (Mus musculus [4]) was 28.5%, the Activity (Mus musculus [5]) was “Active” and the Activity (Mus musculus [6]) was “Active”. The Activity (Mus musculus [7]) was 35%, the Activity (Mus musculus [8]) was “Active” and the Activity (Mus musculus [9]) was 27%. The Activity (Mus musculus [10]) was “Active”, the Activity (Mus musculus [11]) was 66% and the Activity (Mus musculus [12]) was “Active”. The Activity (Mus musculus [13]) was “Active”, the Activity (Mus musculus [14]) was “inactive” and the Activity (Mus musculus [15]) was 15.6%. For the same compound, the Activity (Mus musculus [16]) was 16.6%, the Activity (Mus musculus [17]) was “Dose-Dependent Effect” and the Activity (Mus musculus [18]) was “Active”. The Activity (Mus musculus [19]) was “inactive”.

CC[C@H](C)[C@H](NC(=O)[C@H](Cc1ccccc1)NC(=O)[C@H](CC(=O)O)NC(=O)[C@H](CCC(N)=O)NC(=O)[C@H](C)NC(=O)[C@H](CCCNC(=N)N)NC(=O)[C@H](CCCNC(=N)N)NC(=O)[C@H](CO)NC(=O)[C@H](CC(=O)O)NC(=O)[C@H](CCCCN)NC(=O)[C@H](Cc1ccc(O)cc1)NC(=O)[C@H](CCCCN)NC(=O)[C@H](CO)NC(=O)[C@@H](NC(=O)[C@H](CC(=O)O)NC(=O)[C@H](CC(N)=O)NC(=O)[C@@H](NC(=O)[C@H](Cc1ccc(O)cc1)NC(=O)[C@@H](NC(=O)CNC(=O)[C@H](CCC(N)=O)NC(=O)[C@@H](CO)NC(=O)[C@@H](N)Cc1c[nH]cn1)[C@@H](C)O)[C@@H](C)O)C(C)C)C(=O)N[C@@H](CCC(=O)O)C(=O)N[C@@H](Cc1c[nH]c2ccccc12)C(=O)N[C@@H](CC(C)C)C(=O)N[C@@H](CCCCN)C(=O)N[C@@H](CC(N)=O)C(=O)NCC(=O)NCC(=O)N1CCC[C@H]1C(=O)N[C@@H](CO)C(=O)N[C@@H](CO)C(=O)NCC(=O)N[C@@H](C)C(=O)N1CCC[C@H]1C(=O)N1CCC[C@H]1C(=O)N1CCC[C@H]1C(=O)N[C@@H](CO)C(=O)N[C@@H](CS)C(N)=O showed an EC50 (Glucagon receptor) of 0.19 nM and an EC50 [20] of 0.048 nM.

CC[C@H](C)[C@H](NC(=O)[C@H](Cc1ccccc1)NC(=O)[C@H](CC(=O)O)NC(=O)[C@H](CCC(N)=O)NC(=O)[C@H](C)NC(=O)[C@H](CCCNC(=N)N)NC(=O)[C@H](CCCNC(=N)N)NC(=O)[C@H](CO)NC(=O)[C@H](CC(=O)O)NC(=O)[C@H](CCCCN)NC(=O)[C@H](CCC(N)=O)NC(=O)[C@H](CCCCN)NC(=O)[C@H](CO)NC(=O)[C@H](CC(C)C)NC(=O)[C@H](CC(=O)O)NC(=O)[C@H](CO)NC(=O)[C@@H](NC(=O)[C@H](Cc1ccccc1)NC(=O)[C@@H](NC(=O)CNC(=O)[C@H](CCC(N)=O)NC(=O)[C@@H](CO)NC(=O)[C@@H](N)Cc1c[nH]cn1)[C@@H](C)O)[C@@H](C)O)C(=O)N[C@@H](CCC(=O)O)C(=O)N[C@@H](Cc1c[nH]c2ccccc12)C(=O)N[C@@H](CC(C)C)C(=O)N[C@@H](CCCCN)C(=O)N[C@@H](CC(N)=O)C(=O)NCC(=O)NCC(=O)N1CCC[C@H]1C(=O)N[C@@H](CO)C(=O)N[C@@H](CO)C(=O)NCC(=O)N[C@@H](C)C(=O)N1CCC[C@H]1C(=O)N1CCC[C@H]1C(=O)N1CCC[C@H]1C(=O)N[C@@H](CO)C(=O)N[C@@H](CS)C(N)=O gave an EC50 (Glucagon receptor) of 0.42 nM and an EC50 [20] of 0.087 nM.
